Source: US11000525B2, “1-[2-(aminomethyl)benzyl]-2-thioxo-1,2,3,5-tetrahydro-4H-pyrrolo[3,2-d]pyrimidin-4-ones as inhibitors of myeloperoxidase” (AstraZeneca AB, priority 2014, dated 2021)
“Also recorded” adds a separate entry of the source.

What was measured:
[1] = Plasma urate levels in healthy volunteers (clinical trials); assay type: in vivo, human; conditions: daily dose for 10 days, NCT00914303, FIG. 2
Experimental: Subjects received placebo or the indicated daily dose for 10 days, and the difference in plasma urate levels versus baseline was calculated. Each symbol represents one subject.

[2] = tested on: MPO purified from the human cell line HL60; experiment: MPO inhibition screen (Test A), ascorbate loss at 260 nm; assay type: biochemical; conditions: selectivity for MPO over TPO
Experimental: Methods for the determination of MPO inhibitory activity are disclosed in WO 02/090575. The pharmacological activity of compounds disclosed herein was tested in the following screen (Test A) in which the compounds were tested in the presence of ascorbate, which reacts with MPO-derived hypochlorous acid (HOCl) to form dehydro-ascorbate. The loss of ascorbate is followed by measuring absorbance at 260 nm.
Assay buffer: 100 μM diethyl triamine pentaacetic acid (DTPA) in buffer consisting of 10 mM Na2HPO4/NaH2PO4, 3 mM KCl in 140 mM NaCl, pH 7.4.
Enzyme solution: MPO purified from the human cell line HL60, 1.38 nM (final concentration 0.7 nM) and L-ascorbate, 100 μM (final concentration 50 μM) in Assay buffer
Absorbance was measured at 260 nm to obtain a compound blank value. After an additional 10 min, 40 μL of the substrate solution was added and the absorbance at 260 nm was recorded between 4 and 40 min to obtain kinetic readings of enzyme activity.

IC50 (TPO)/IC50 (MPO) [2] | SMILES | Reduction of plasma urate (uric acid) levels versus baseline [1]
– | CC(C)OCCn1c(=S)[nH]c(=O)c2[nH]ccc21 [AZD3241] | dose-dependent reduction of uric acid; also recorded: dose-dependently reduced urate levels
1100 | O=c1[nH]c(=S)n(Cc2ccccc2CNC2CCC2)c2cc[nH]c12 [Example 10, 1-{2-[(Cyclobutylamino)methyl]benzyl}-2-thioxo-1,2,3,5-tetrahydro-4H-pyrrolo[3,2-d]pyrimidin-4-one] | –
